#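 Here, GI50 denotes the concentration required for 50% inhibition of growth. The concentration for full growth arrest is given as TGI.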
# Columns and labels:
# Test in all cases: DTP human tumour cell line panel, 384-well format
# NCI-H522 lung = tested on: NCI-H522 lung
# SW-620 colon = tested on: SW-620 colon
# MDA-MB-435 melanoma = tested on: MDA-MB-435 melanoma
# BT-549 breast = tested on: BT-549 breast
# OVCAR-4 ovarian = tested on: OVCAR-4 ovarian
# PC-3 prostate = tested on: PC-3 prostate
# 786-0 renal = tested on: 786-0 renal
# HOP-62 NSCLC = tested on: HOP-62 NSCLC
# HT29 colon = tested on: HT29 colon
# A498 renal = tested on: A498 renal
# HCC-2998 colon = tested on: HCC-2998 colon
# HOP-92 NSCLC = tested on: HOP-92 NSCLC
# NCI/ADR-RES ovarian = tested on: NCI/ADR-RES ovarian
# MDA-MB-231 breast = tested on: MDA-MB-231 breast
# IGROV1 ovarian = tested on: IGROV1 ovarian
# SNB-75 CNS = tested on: SNB-75 CNS
# SF-295 CNS = tested on: SF-295 CNS
# A549 NSCLC = tested on: A549 NSCLC
# SF-268 CNS = tested on: SF-268 CNS
# K-562 leukemia = tested on: K-562 leukemia
# SK-MEL-28 melanoma = tested on: SK-MEL-28 melanoma
# UACC-257 melanoma = tested on: UACC-257 melanoma
# HCT-15 colon = tested on: HCT-15 colon
# OVCAR-3 ovarian = tested on: OVCAR-3 ovarian
# RXF 393 renal = tested on: RXF 393 renal
# M14 melanoma = tested on: M14 melanoma
# HL-60(TB) leukemia = tested on: HL-60(TB) leukemia
# NCI-H23 lung = tested on: NCI-H23 lung
# CCRF-CEM leukemia = tested on: CCRF-CEM leukemia
# KM12 colon = tested on: KM12 colon
# RPMI-8226 leukemia = tested on: RPMI-8226 leukemia
# COLO 205 colon = tested on: COLO 205 colon
# SK-OV-3 ovarian = tested on: SK-OV-3 ovarian
# MALME-3M melanoma = tested on: MALME-3M melanoma
# OVCAR-8 ovarian = tested on: OVCAR-8 ovarian
# SR leukemia = tested on: SR leukemia
# SK-MEL-5 melanoma = tested on: SK-MEL-5 melanoma
# EKVX NSCLC = tested on: EKVX NSCLC
# NCI-H322M lung = tested on: NCI-H322M lung
# HS 578T breast = tested on: HS 578T breast
# MCF7 breast = tested on: MCF7 breast
# DU-145 prostate = tested on: DU-145 prostate
# MOLT-4 leukemia = tested on: MOLT-4 leukemia
# SN12C renal = tested on: SN12C renal
# UACC-62 melanoma = tested on: UACC-62 melanoma
# MDA-MB-468 breast = tested on: MDA-MB-468 breast
# SF-539 CNS = tested on: SF-539 CNS
# UO-31 renal = tested on: UO-31 renal
# OVCAR-5 ovarian = tested on: OVCAR-5 ovarian
# NCI-H460 NSCLC = tested on: NCI-H460 NSCLC
# U251 glioblastoma = tested on: U251 glioblastoma
# TK-10 renal = tested on: TK-10 renal
# SNB-19 CNS = tested on: SNB-19 CNS
# T-47D breast = tested on: T-47D breast
# LOX IMVI melanoma = tested on: LOX IMVI melanoma
# CAKI-1 renal = tested on: CAKI-1 renal
structure (smiles),measurement,setting,value
CC[C@H](Nc1nc(NCc2cnc(C)cc2C)c2ncn(C(C)C)c2n1)[C@@H](C)O,GI50,NCI-H522 lung,180 nM
same,TGI,NCI-H522 lung,341 nM
same,GI50,SW-620 colon,205 nM
same,TGI,SW-620 colon,780 nM
same,GI50,MDA-MB-435 melanoma,245 nM
same,TGI,MDA-MB-435 melanoma,693 nM
same,GI50,BT-549 breast,138 nM
same,TGI,BT-549 breast,294 nM
same,GI50,OVCAR-4 ovarian,316 nM
same,TGI,OVCAR-4 ovarian,1290 nM
same,GI50,PC-3 prostate,224 nM
same,TGI,PC-3 prostate,594 nM
same,GI50,786-0 renal,227 nM
same,TGI,786-0 renal,657 nM
same,GI50,HOP-62 NSCLC,225 nM
same,TGI,HOP-62 NSCLC,638 nM
same,GI50,HT29 colon,198 nM
same,TGI,HT29 colon,472 nM
same,GI50,A498 renal,240 nM
same,TGI,A498 renal,648 nM
same,GI50,HCC-2998 colon,159 nM
same,TGI,HCC-2998 colon,380 nM
same,GI50,HOP-92 NSCLC,230 nM
same,TGI,HOP-92 NSCLC,569 nM
same,GI50,NCI/ADR-RES ovarian,1540 nM
same,TGI,NCI/ADR-RES ovarian,4670 nM
same,GI50,MDA-MB-231 breast,196 nM
same,TGI,MDA-MB-231 breast,767 nM
same,GI50,IGROV1 ovarian,277 nM
same,TGI,IGROV1 ovarian,797 nM
same,GI50,SNB-75 CNS,183 nM
same,TGI,SNB-75 CNS,424 nM
same,GI50,SF-295 CNS,224 nM
same,TGI,SF-295 CNS,522 nM
same,GI50,A549 NSCLC,315 nM
same,TGI,A549 NSCLC,> 100000 nM
same,GI50,SF-268 CNS,166 nM
same,TGI,SF-268 CNS,386 nM
same,GI50,K-562 leukemia,286 nM
same,TGI,K-562 leukemia,960 nM
same,GI50,SK-MEL-28 melanoma,163 nM
same,TGI,SK-MEL-28 melanoma,335 nM
same,GI50,UACC-257 melanoma,232 nM
same,TGI,UACC-257 melanoma,445 nM
same,GI50,HCT-15 colon,296 nM
same,TGI,HCT-15 colon,817 nM
same,GI50,OVCAR-3 ovarian,232 nM
same,TGI,OVCAR-3 ovarian,516 nM
same,GI50,RXF 393 renal,175 nM
same,TGI,RXF 393 renal,349 nM
same,GI50,M14 melanoma,156 nM
same,TGI,M14 melanoma,533 nM
same,GI50,HL-60(TB) leukemia,148 nM
same,TGI,HL-60(TB) leukemia,282 nM
same,GI50,NCI-H23 lung,173 nM
same,TGI,NCI-H23 lung,343 nM
same,GI50,CCRF-CEM leukemia,160 nM
same,TGI,CCRF-CEM leukemia,307 nM
same,GI50,KM12 colon,239 nM
same,TGI,KM12 colon,737 nM
same,GI50,RPMI-8226 leukemia,149 nM
same,TGI,RPMI-8226 leukemia,284 nM
same,GI50,COLO 205 colon,206 nM
same,TGI,COLO 205 colon,508 nM
same,GI50,SK-OV-3 ovarian,452 nM
same,TGI,SK-OV-3 ovarian,3390 nM
same,GI50,MALME-3M melanoma,298 nM
same,TGI,MALME-3M melanoma,967 nM
same,GI50,OVCAR-8 ovarian,225 nM
same,TGI,OVCAR-8 ovarian,551 nM
same,GI50,SR leukemia,137 nM
same,TGI,SR leukemia,269 nM
same,GI50,SK-MEL-5 melanoma,139 nM
same,TGI,SK-MEL-5 melanoma,291 nM
same,GI50,EKVX NSCLC,267 nM
same,TGI,EKVX NSCLC,757 nM
same,GI50,NCI-H322M lung,226 nM
same,TGI,NCI-H322M lung,501 nM
same,GI50,HS 578T breast,134 nM
same,TGI,HS 578T breast,291 nM
same,GI50,MCF7 breast,333 nM
same,TGI,MCF7 breast,1330 nM
same,GI50,DU-145 prostate,302 nM
same,TGI,DU-145 prostate,1260 nM
same,GI50,MOLT-4 leukemia,184 nM
same,TGI,MOLT-4 leukemia,334 nM
same,GI50,SN12C renal,217 nM
same,TGI,SN12C renal,487 nM
same,GI50,UACC-62 melanoma,171 nM
same,TGI,UACC-62 melanoma,397 nM
same,GI50,MDA-MB-468 breast,182 nM
same,TGI,MDA-MB-468 breast,334 nM
same,GI50,SF-539 CNS,185 nM
same,TGI,SF-539 CNS,383 nM
same,GI50,UO-31 renal,353 nM
same,TGI,UO-31 renal,> 100000 nM
same,GI50,OVCAR-5 ovarian,248 nM
same,TGI,OVCAR-5 ovarian,691 nM
CCc1c(C#N)c(S[C@@H](C(N)=O)c2ccccc2)nc(N(C)C)c1C#N,GI50,SW-620 colon,> 100000 nM
same,TGI,SW-620 colon,> 100000 nM
same,GI50,NCI-H460 NSCLC,> 100000 nM
same,TGI,NCI-H460 NSCLC,> 100000 nM
same,GI50,MDA-MB-435 melanoma,> 100000 nM
same,TGI,MDA-MB-435 melanoma,> 100000 nM
same,GI50,OVCAR-4 ovarian,> 100000 nM
same,TGI,OVCAR-4 ovarian,> 100000 nM
same,GI50,PC-3 prostate,> 100000 nM
same,TGI,PC-3 prostate,> 100000 nM
same,GI50,U251 glioblastoma,> 100000 nM
same,TGI,U251 glioblastoma,> 100000 nM
same,GI50,TK-10 renal,> 100000 nM
same,TGI,TK-10 renal,> 100000 nM
same,GI50,786-0 renal,> 100000 nM
same,TGI,786-0 renal,> 100000 nM
same,GI50,HT29 colon,> 100000 nM
same,TGI,HT29 colon,> 100000 nM
same,GI50,A498 renal,> 100000 nM
same,TGI,A498 renal,> 100000 nM
same,GI50,HCC-2998 colon,> 100000 nM
same,TGI,HCC-2998 colon,> 100000 nM
same,GI50,SNB-19 CNS,> 100000 nM
same,TGI,SNB-19 CNS,> 100000 nM
same,GI50,HOP-92 NSCLC,10600 nM
same,TGI,HOP-92 NSCLC,> 100000 nM
same,GI50,NCI/ADR-RES ovarian,> 100000 nM
same,TGI,NCI/ADR-RES ovarian,> 100000 nM
same,GI50,MDA-MB-231 breast,37700 nM
same,TGI,MDA-MB-231 breast,> 100000 nM
same,GI50,IGROV1 ovarian,> 100000 nM
same,TGI,IGROV1 ovarian,> 100000 nM
same,GI50,SNB-75 CNS,26400 nM
same,TGI,SNB-75 CNS,76800 nM
same,GI50,SF-295 CNS,3830 nM
same,TGI,SF-295 CNS,> 100000 nM
same,GI50,A549 NSCLC,> 100000 nM
same,TGI,A549 NSCLC,> 100000 nM
same,GI50,SF-268 CNS,> 100000 nM
same,TGI,SF-268 CNS,> 100000 nM
same,GI50,K-562 leukemia,> 100000 nM
same,TGI,K-562 leukemia,> 100000 nM
same,GI50,SK-MEL-28 melanoma,> 100000 nM
same,TGI,SK-MEL-28 melanoma,> 100000 nM
same,GI50,T-47D breast,> 100000 nM
same,TGI,T-47D breast,> 100000 nM
same,GI50,HCT-15 colon,> 100000 nM
same,TGI,HCT-15 colon,> 100000 nM
same,GI50,OVCAR-3 ovarian,> 100000 nM
same,TGI,OVCAR-3 ovarian,> 100000 nM
same,GI50,RXF 393 renal,2310 nM
same,TGI,RXF 393 renal,6060 nM
same,GI50,M14 melanoma,> 100000 nM
same,TGI,M14 melanoma,> 100000 nM
same,GI50,HL-60(TB) leukemia,> 100000 nM
same,TGI,HL-60(TB) leukemia,> 100000 nM
same,GI50,CCRF-CEM leukemia,> 100000 nM
same,TGI,CCRF-CEM leukemia,> 100000 nM
same,GI50,LOX IMVI melanoma,> 100000 nM
same,TGI,LOX IMVI melanoma,> 100000 nM
same,GI50,CAKI-1 renal,> 100000 nM
same,TGI,CAKI-1 renal,> 100000 nM
same,GI50,KM12 colon,> 100000 nM
same,TGI,KM12 colon,> 100000 nM
same,GI50,RPMI-8226 leukemia,> 100000 nM
same,TGI,RPMI-8226 leukemia,> 100000 nM
same,GI50,COLO 205 colon,> 100000 nM
same,TGI,COLO 205 colon,> 100000 nM
same,GI50,MALME-3M melanoma,38100 nM
same,TGI,MALME-3M melanoma,> 100000 nM
same,GI50,OVCAR-8 ovarian,3770 nM
same,TGI,OVCAR-8 ovarian,> 100000 nM
same,GI50,SR leukemia,3050 nM
same,TGI,SR leukemia,> 100000 nM
same,GI50,SK-MEL-5 melanoma,> 100000 nM
same,TGI,SK-MEL-5 melanoma,> 100000 nM
same,GI50,EKVX NSCLC,> 100000 nM
same,TGI,EKVX NSCLC,> 100000 nM
same,GI50,NCI-H322M lung,> 100000 nM
same,TGI,NCI-H322M lung,> 100000 nM
same,GI50,HS 578T breast,4580 nM
same,TGI,HS 578T breast,> 100000 nM
same,GI50,MCF7 breast,> 100000 nM
same,TGI,MCF7 breast,> 100000 nM
same,GI50,DU-145 prostate,> 100000 nM
same,TGI,DU-145 prostate,> 100000 nM
same,GI50,MOLT-4 leukemia,> 100000 nM
same,TGI,MOLT-4 leukemia,> 100000 nM
same,GI50,SN12C renal,> 100000 nM
same,TGI,SN12C renal,> 100000 nM
same,GI50,MDA-MB-468 breast,> 100000 nM
same,TGI,MDA-MB-468 breast,> 100000 nM
same,GI50,SF-539 CNS,> 100000 nM
same,TGI,SF-539 CNS,> 100000 nM
same,GI50,UO-31 renal,> 100000 nM
same,TGI,UO-31 renal,> 100000 nM
same,GI50,OVCAR-5 ovarian,> 100000 nM
same,TGI,OVCAR-5 ovarian,> 100000 nM
